Test results as given in patent US20100240746A1, “STEREOISOMERS OF TRICYCLODECAN-9-YL-XANTHOGENATE” (LUMAVITA AG, priority 2007, published 2010).
Values after ≈ are worked out from the molar mass of the structure shown.

Key:
[1] = test system: herpes simplex virus type 2; experiment: HSV-2 inhibition in Calu-6 cells, plaque titration on RITA cells; assay type: cell-based; settings: Human alphaherpesvirus 2, Calu-6; 48 hr, 50 plaque forming units per well
Method: (§1) Calu-6 cells and RITA cells were grown in DMEM cell culture medium containing 10% fetal calf serum in CO2 incubator under 5% CO2 at 37° C. with 100% humidity.
For HSV-2 inhibition, Calu-6 cells were seeded in 96 well plates at a density of 3×10^6 cells per plate in the DMEM cell culture medium. The plates were incubated at 37° C. in the presence of 5% CO2 for 24 hr. The DMEM cell culture medium in the plates was removed and the cells were infected with Herpes simplex virus type-2 at 50 plaque forming units per well. After incubation at 37° C. for 60 min, test compounds in DMEM cell culture medium at a series of concentrations were added. The plates were incubated at 37° C. in the presence of 5% CO2 for 48 hr. The plates were frozen at −20° C. prior to further analysis. After thawing at room temperature, supernatants containing infectious virus particles were prepared by centrifuging the supernatant from each well at 18,000 g at 4° C. for 5 min. The supernatant was further diluted before assay.
RITA cells were seeded in 24 well Linbra plates at a density of 4×10^6 cells per plate in 2 mL of DMEM cell culture medium. The plates were incubated at 37° C. in the presence of 5% CO2 for 24 hr. […] The number of plaques was determined macroscopically. […] The therapeutic index was also calculated for each compound by dividing LD50 with IC50.

[2] = test system: Calu-6 cells; experiment: Cytotoxicity assay in Calu-6 cells (crystal violet); assay type: cell-based; settings: 48 hr
Method: as §1
For cytotoxicity assay, Calu-6 cells were seeded in 96 well plates at a density of 3×10^6 cells per plate in the DMEM cell culture medium. The plates were incubated at 37° C. in the presence of 5% CO2 for 24 hr. The DMEM cell culture medium in the plates was exchanged with fresh DMEM cell culture medium containing test compounds at a series of concentrations. The plates were incubated at 37° C. in the presence of 5% CO2 for 48 hr. The plates were then washed with PBS, fixed with 3% formaldehyde solution containing 0.9% NaCl for 1 min, washed by water for 10 sec, and dried overnight. For detection, the plates were stained with crystal violet solution for 5 min at room temperature, washed 5 times with water, and dried at room temperature overnight. After adding ethanol/acetic acid (99:1, v/v, […]) to each well, the plates were measured at 595 nm using an ELISA reader. A dose response curve was obtained for each compound tested by plotting the mean values of the optical densities against compound concentration.

[3] = test system: bovine papilloma virus type I (BPV-1)-transformed HEF (HEF-BPV); experiment: BPV-infected hamster embryo fibroblasts (HEF) cell proliferation assay; assay type: cell-based; settings: 72 hr incubation
Method: Briefly, hamster embryo fibroblasts and bovine papilloma virus type I (BPV-1)-transformed HEF (HEF-BPV) were grown in Eagle's basal medium. […] and HEF cells were seeded in 96-well plates at a density of 0.5×10^6 cells per plate in DMEM cell culture medium containing 10% fetal calf serum at pH 6.8. The plates were then incubated in the presence of 5% CO2 in 100% humidity at 37° C. After 6 hr, the cell culture medium in the plates was exchanged with fresh DMEM cell culture medium containing test compounds at a series of concentrations. The plates were incubated at 37° C. for additional 72 hr. Cells in the plates were then washed with PBS, fixed with 3% formaldehyde solution containing 0.9% NaCl for 1 min, washed by water for 10 sec, and dried overnight. For detection, the plates were stained with crystal violet solution for 5 min at room temperature, washed 5 times with water, and dried at room temperature overnight. After adding ethanol/acetic acid (99:1, v/v, […]) to each well, the plates were measured at 595 nm using an ELISA reader.

[4] = biological target: T1, phosphatidylcholine-specific phospholipase C (PC-PLC) (Bacillus cereus, UniProt P09598); experiment: Amplex Red phosphatidylcholine-specific phospholipase C (PC-PLC) inhibition assay; assay type: biochemical, B. cereus; settings: 30 min at 37° C., triplicate; read-out: IC50 (converted)
T1 construct: purchased Invitrogen
T1 sequence (P09598 39-283 limits assumed): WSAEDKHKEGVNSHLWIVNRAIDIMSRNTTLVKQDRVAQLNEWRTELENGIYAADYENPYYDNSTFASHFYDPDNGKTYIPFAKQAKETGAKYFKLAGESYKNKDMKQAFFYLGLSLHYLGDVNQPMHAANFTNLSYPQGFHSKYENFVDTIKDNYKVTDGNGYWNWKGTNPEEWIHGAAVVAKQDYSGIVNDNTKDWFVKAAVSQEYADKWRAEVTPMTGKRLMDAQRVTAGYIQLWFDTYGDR
Method: The inhibitory activities of optically active potassium salts of (+)- and (−)-O-exo/C-exo-tricyclo [5.2.1.0^2,6]-dec-9-yl-xanthic acid 1A ((+)- and (−)-enantiomers 1A) against phosphatidylcholine-specific phospholipase C were evaluated, together with D609 and potassium salt of racemic O-exo/C-exo xanthic acid 1A (racemic 1A), using Amplex Red phosphatidylcholine-specific phospholipase C(PC-PLC) assay kit, which was obtained from Invitrogen (Calsbad, Calif.). D609 was obtained from Sigma Aldrich.
An Amplex Red stock solution (˜20 mM), a working reaction buffer, and a horseradish peroxidase stock solution (200 U/mL), a H2O2 working solution (20 mM), a choline oxidate stock solution (20 U/mL), an alkaline phosphatase stock solution (400 U/mL), and a B. cereus PC-PLC stock solution (10 U/mL) were prepared according to the instruction of the assay kit. The stock solution (100 mg/mL) for each test compound was also prepared by dissolving the compound in water 2 hr prior to the start of the experiment.
A working Amplex Red/HRP/lecithin solution was prepared by adding 200 μL of Amplex Red reagent stock solution, 100 μL of HRP stock solution, 200 μL of alkaline phosphatase stock solution, 100 μL of choline oxidase stock solution, and 78 μL of the lecithin solution to […] of the working reaction buffer. PC-PLC solution (0.2 U/mL) was prepared by diluting the PC-PLC stock solution with the working reaction buffer to the desired concentration.
The test compound (25 μL) at a serious of concentrations was pipetted into a 96 well plate. For uninhibited PC-PLC controls and non-PC-PLC controls, 25 μL of water was added. After the addition of 50 μL of the Amplex Red/HRP/lecithin working solution, the reaction was initiated by adding 25 μL of PC-PLC solution to each well. To the non-PC-PLC controls, 25 μL of water was added instead of PC-PLC solution. The experiment was performed in triplicate. The reactions were protected from light. After incubated for 30 min at 37° C., the reactions were measured with a fluorescence microplate reader using excitation at 550 nm and emission detection at 590 nm. The fluorescent data obtained were corrected for background fluorescence by subtracting the values obtained from the non-PC-PLC controls.

S=C(S)O[C@@H]1C[C@@H]2C[C@H]1[C@H]1CCC[C@@H]21 (racemic) [Racemic 1A, racemic O-exo/C-exo xanthic acid 1A, reference compound]
IC50 [1]: 17.2 ± 5.95 µg/mL (≈ 75.2 µM)
LD50 [2]: 96.93 ± 7.12 µg/mL
IC50 [3]: 14.55 ± 0.07 µg/mL (≈ 63.7 µM)
IC50 [4]: 44 µM
